# Experimental data reported in ChEMBL document CHEMBL4406843, “β-Amino acid derivatives as mitochondrial complex III inhibitors of L. donovani: A promising chemotype targeting visceral leishmaniasis” (Eur J Med Chem, 2019).
# Active and inactive are the calls of the source. No cut-off for these calls is given here.
# Experiments:
# [1] = Cytotoxicity against African green monkey Vero cells assessed as cell viability at 50 uM by MTT assay relative to control; assay type: cell-based; details: chlorocebus sabaeus, read-out: Activity
# [2] = test system: Leishmania donovani; experiment: Antileishmanial activity against promastigote stage of Leishmania donovani MHOM/IN/80/Dd8 harboring luciferase reporter gene at 25 uM after 48 hrs by Steady-Glo luminescence assay relative to control; assay type: functional; details: MHOM/IN/80/Dd8, 48 h
# [3] = test system: Leishmania donovani; experiment: Antileishmanial activity against promastigote stage of Leishmania donovani MHOM/IN/80/Dd8 harboring luciferase reporter gene at 50 uM after 48 hrs by Steady-Glo luminescence assay relative to control; assay type: functional; details: MHOM/IN/80/Dd8, 48 h
# [4] = test system: Leishmania donovani; experiment: Antileishmanial activity against promastigote stage of Leishmania donovani MHOM/IN/80/Dd8 harboring luciferase reporter gene at 100 uM after 48 hrs by Steady-Glo luminescence assay relative to control; assay type: functional; details: MHOM/IN/80/Dd8, 48 h
# [5] = test system: Leishmania donovani; experiment: Antileishmanial activity against Leishmania donovani MHOM/IN/80/Dd8 promastigotes harboring luciferase reporter gene assessed as reduction in parasite viability after 48 hrs by MTT assay; assay type: functional, organism-based; details: MHOM/IN/80/Dd8, 48 h
# [6] = test system: Leishmania donovani; experiment: Antileishmanial activity against Leishmania donovani MHOM/IN/80/Dd8 amastigotes harboring luciferase reporter gene infected in mouse J774 cells after 48 hrs by Giemsa staining-based microscopic assay; assay type: functional, organism-based; details: MHOM/IN/80/Dd8, J774, 48 h
# [7] = Cytotoxicity against African green monkey Vero cells assessed as reduction in cell viability after 72 hrs by MTT assay; assay type: cell-based; details: chlorocebus sabaeus
# [8] = Selectivity index, ratio of CC50 for mouse J774 cells to IC50 for antileishmanial activity against Leishmania donovani MHOM/IN/80/Dd8 amastigotes harboring luciferase reporter gene; assay type: toxicity; details: read-out: Ratio CC50/IC50
# [9] = Stability in simulated intestinal fluid at 10 ug/ml measured after 2 hrs by UPLC analysis relative to control; assay type: ADME; details: read-out: Stability
# [10] = Stability in mouse plasma at 10 ug/ml measured after 2 hrs by UPLC analysis relative to control; assay type: ADME, cell-free; details: read-out: Stability
# [11] = test system: Leishmania donovani; experiment: (§1) Antileishmanial activity against Leishmania donovani promastigotes infected in BALB/c mouse assessed as reduction in parasite burden in spleen at 25 mg/kg, ip administered for 7 days starting at 15 days post-infection and measured after 1 week post last dose Giemsa staining-based assay relative to control; assay type: functional
# [12] = test system: Leishmania donovani; experiment: as §1, with “inhibition” for “reduction”, “50” for “25”; assay type: functional
# [13] = test system: Leishmania donovani; experiment: as §1, with “inhibition” for “reduction”, “liver” for “spleen”, “50” for “25”; assay type: functional
# [14] = test system: Leishmania donovani; experiment: as §1, with “inhibition” for “reduction”, “liver” for “spleen”, “100” for “25”; assay type: functional
# [15] = test system: Leishmania donovani; experiment: Antileishmanial activity against Leishmania donovani amastigotes infected in golden hamster assessed as reduction in parasite burden in spleen at 50 mg/kg, ip administered on alternative days for 4 weeks starting at 4 weeks post-infection and measured after 2 week post last dose Giemsa staining-based assay relative to control; assay type: functional
# [16] = Toxicity in BALB/c mouse infected with Leishmania donovani promastigotes assessed as serum AST level at 50 mg/kg , ip measured after 3 to 7 weeks (reference value: 114 U/L); assay type: organism-based; details: in vivo
# [17] = Toxicity in golden hamster infected with Leishmania donovani amastigotes assessed as reduction in serum AST level at 50 mg/kg , ip and measured after 10 weeks post infection (reference value: 113 U/L); assay type: organism-based, Mesocricetus auratus; details: in vivo, 1680 h
# [18] = test system: J774; experiment: Immunostimulatory activity in mouse J774 cells infected with Leishmania donovani promastigotes assessed as increase in TNF-alpha cytokine production at 50 uM after 48 hrs by ELISA; assay type: functional, cell-based
# [19] = test system: Leishmania donovani; experiment: Induction of membrane depolarization in Leishmania donovani promastigotes assessed as increase in fluorescence at IC50 by DiBAC4 dye based flow cytometry analysis; assay type: functional, organism-based; details: TDE = time-dependent effect
# [20] = test system: Leishmania donovani; experiment: Induction of membrane depolarization in Leishmania donovani promastigotes assessed as increase in fluorescence at 50 uM by DiBAC4 dye based flow cytometry analysis relative to relative to 0.1% Triton X-100; assay type: functional
# [21] = test system: Leishmania donovani; experiment: Induction of mitochondrial dysfunction in Leishmania donovani promastigotes assessed as reduction in mitochondrial membrane potential at 50 uM after 6 hrs by JC-1 staining-based flow cytometric analysis (reference value: 7.73%); assay type: functional; design: scale not given: the % may be the effect or the level left
# [22] = test system: Leishmania donovani; experiment: Induction of mitochondrial dysfunction in Leishmania donovani promastigotes assessed as reduction in mitochondrial membrane potential at 50 uM after 24 hrs by JC-1 staining-based flow cytometric analysis (reference value: 7.73%); assay type: functional; design: scale not given: the % may be the effect or the level left
# [23] = test system: Leishmania donovani; experiment: Induction of mitochondrial membrane depolarization in Leishmania donovani promastigotes assessed as distorted mitochondria at 50 uM after 24 hrs by TEM analysis; assay type: functional, organism-based
# [24] = test system: Leishmania donovani; experiment: Induction of mitochondrial membrane depolarization in Leishmania donovani promastigotes assessed as swelling of mitochondria at 50 uM after 24 hrs by TEM analysis; assay type: functional, organism-based
# [25] = test system: Leishmania donovani; experiment: Induction of mitochondrial membrane depolarization in Leishmania donovani promastigotes assessed as disruption of cristae at 50 uM after 24 hrs by TEM analysis; assay type: functional, organism-based
# [26] = test system: Leishmania donovani; experiment: Induction of apoptosis in Leishmania donovani promastigotes assessed as necrotic cells at 50 uM after 24 hrs by Annexin-V/propidium iodide staining based flow cytometric method (reference value: 0.06%); assay type: functional
# [27] = test system: Leishmania donovani; experiment: Induction of ROS generation in Leishmania donovani promastigotes at 50 uM after 3 hrs by H2DCFDA probe based flow cytometry (reference value: 1.97%); assay type: functional
# [28] = test system: Leishmania donovani; experiment: Induction of ROS generation in Leishmania donovani promastigotes at 50 uM after 6 hrs by H2DCFDA probe based flow cytometry (reference value: 1.97%); assay type: functional
# [29] = test system: Leishmania donovani; experiment: Induction of ROS generation in Leishmania donovani promastigotes at 50 uM after 48 hrs by H2DCFDA probe based flow cytometry (reference value: 1.97%); assay type: functional
# [30] = test system: Leishmania donovani; experiment: Inhibition of succinate-ubiquinone oxidoreductase in Leishmania donovani promastigotes mitochondria at 8.1 to 50 uM using succinate as substrate in presence fo DCPIP by photometry analysis
# [31] = test system: Leishmania donovani; experiment: Inhibition of ubiquinol cytochrome c reductase in Leishmania donovani promastigotes mitochondria at 8.1 to 50 uM using decylubiquinol as substrate in presence of cytochrome c
# [32] = test system: Leishmania donovani; experiment: Inhibition of ubiquinol cytochrome c reductase in Leishmania donovani promastigotes mitochondria at 50 uM using decylubiquinol as substrate in presence of cytochrome c relative to control
# [33] = test system: Leishmania donovani; experiment: Inhibition of […] in Leishmania donovani promastigotes mitochondria at 8.1 to 50 uM using decylubiquinol as substrate in presence of cytochrome c
# [34] = Half life in BALB/c mouse at 50 mg/kg, ip by HPLC analysis; assay type: ADME, organism-based; details: in vivo
# [35] = Tmax in BALB/c mouse at 50 mg/kg, ip by HPLC analysis; assay type: ADME, organism-based; details: in vivo
# [36] = AUC(0 to 24 hrs) in BALB/c mouse at 50 mg/kg, ip by HPLC analysis; assay type: ADME, organism-based; design: dose 50 mg/kg, time < 24 hr, route intraperitoneal; details: in vivo
# [37] = Toxicity in golden hamster infected with Leishmania donovani amastigotes assessed as effect on body weight at 12.5 to 200 mg/kg, ip administered on alternative days for 4 weeks starting at 4 weeks post-infection; assay type: organism-based, Mesocricetus auratus; details: in vivo, 672 h
structure (smiles),measurement,setting,value
CCOC(=O)C(C(=O)c1ccc(OC)cc1)C(NC(C)=O)c1cccc2ccccc12 (configuration not stated),viability at 50 µM,[1],98.7%
same,inhibition at 25 µM,[2],85.3%
same,inhibition at 50 µM,[3],96.6%
same,inhibition at 100 µM,[4],97.1%
same,IC50,[5],9.1 µM
same,IC50,[6],16.9 µM
same,CC50 at 72 h,[7],> 350 µM
same,selectivity ratio,[8],23.4
same,"remaining at 2 h, 10 ug/ml",[9],80.2%
same,"remaining at 2 h, 10 ug/ml",[10],81%
same,inhibition in vivo at 25 mg/kg,[11],68.5%
same,inhibition in vivo at 50 mg/kg,[12],92.5%
same,inhibition in vivo at 50 mg/kg,[13],91.5%
same,inhibition in vivo at 100 mg/kg,[14],92.1%
same,inhibition in vivo at 50 mg/kg,[15],90.4%
same,Activity,[16],54 to 298 IU/L
same,Activity,[17],92 IU/L
same,Activity,[18],inactive
same,Activity,[19],Tde
same,Activity,[20],<=78.5%
same,Activity,[21],19.52%
same,Activity,[22],63.61%
same,Activity,[23],Active
same,Activity,[24],Active
same,Activity,[25],Active
same,Activity,[26],0.07%
same,Activity,[27],7.49%
same,Activity,[28],30.3%
same,Activity,[29],65.74%
same,inhibition,[30],inactive
same,inhibition,[31],Active
same,inhibition,[32],> 49%
same,inhibition,[33],inactive
same,half-life,[34],5.11 h
same,Tmax,[35],0.25 h
same,AUC(0-t) at 24 h,[36],1280 ng·h/mL
same,Activity,[37],Non-Toxic
